Measurements reported in the supplement of paper PMC10307832.

Experiments:
Assay in all cases: relative viability (nuclei count vs DMSO), 5 days (fraction); higher = more cells survive
Decitabine + Dasatinib = compound: Nc1ncn([C@H]2C[C@H](O)[C@@H](CO)O2)c(=O)n1 [Decitabine] + Cc1nc(Nc2ncc(C(=O)Nc3c(C)cccc3Cl)s2)cc(N2CCN(CCO)CC2)n1 [Dasatinib] (partner 0.075 µM)
In short: (§1)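 Nuclei were stained with Hoechst during a one-step fixation (final 0.05% Triton X-100, 1% formaldehyde, 1 ug/ml Hoechst) carried out 5 days after dosing, then counted on 4× images. The cells, lung cancer lines in 1536-well plates, had been dosed by pin tool the day after seeding with one drug alone or a fixed anchor-drug dose plus five library-drug doses (not always all listed) in √10 steps. Relative viability is the nuclei count in treated wells divided by that in vehicle wells, and each value is the median of duplicate plates.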

Decitabine + Palbociclib = compound: Nc1ncn([C@H]2C[C@H](O)[C@@H](CO)O2)c(=O)n1 [Decitabine] + CC(=O)c1c(C)c2cnc(Nc3ccc(N4CCNCC4)cn3)nc2n(C2CCCC2)c1=O [Palbociclib] (partner 0.5 µM)
In short: as §1

Cediranib + AZD7762 = compound: COc1cc2c(Oc3ccc4[nH]c(C)cc4c3F)ncnc2cc1OCCCN1CCCC1 [Cediranib] + NC(=O)Nc1cc(-c2cccc(F)c2)sc1C(=O)N[C@H]1CCCNC1 [AZD7762] (partner 0.2 µM)
In short: as §1

Cediranib + Bortezomib = compound: COc1cc2c(Oc3ccc4[nH]c(C)cc4c3F)ncnc2cc1OCCCN1CCCC1 [Cediranib] + CC(C)C[C@H](NC(=O)[C@H](Cc1ccccc1)NC(=O)c1cnccn1)B(O)O [Bortezomib] (partner 0.002 µM)
In short: as §1

Cell Line	relative viability (Decitabine + Dasatinib; first compound 0.04 µM)	relative viability (Decitabine + Dasatinib; first compound 0.1265 µM)	relative viability (Decitabine + Dasatinib; first compound 0.4 µM)	relative viability (Decitabine + Dasatinib; first compound 1.265 µM)	relative viability (Decitabine + Dasatinib; first compound 4 µM)	relative viability (Decitabine + Palbociclib; first compound 0.04 µM)	relative viability (Decitabine + Palbociclib; first compound 0.1265 µM)	relative viability (Decitabine + Palbociclib; first compound 0.4 µM)	relative viability (Decitabine + Palbociclib; first compound 1.265 µM)	relative viability (Decitabine + Palbociclib; first compound 4 µM)	relative viability (Cediranib + AZD7762; first compound 0.04 µM)	relative viability (Cediranib + AZD7762; first compound 0.1265 µM)	relative viability (Cediranib + AZD7762; first compound 0.4 µM)	relative viability (Cediranib + AZD7762; first compound 1.265 µM)	relative viability (Cediranib + AZD7762; first compound 4 µM)	relative viability (Cediranib + Bortezomib; first compound 0.04 µM)	relative viability (Cediranib + Bortezomib; first compound 0.1265 µM)	relative viability (Cediranib + Bortezomib; first compound 0.4 µM)	relative viability (Cediranib + Bortezomib; first compound 1.265 µM)	relative viability (Cediranib + Bortezomib; first compound 4 µM)
NCI-H1793	0.347	0.394	0.382	0.246	0.239	0.339	0.329	0.381	0.301	0.31	0.521	0.492	0.418	0.329	0.394	–	–	–	–	–
NCI-H1944	0.201	0.242	0.177	0.2	0.211	0.331	0.32	0.313	0.294	0.281	0.487	0.586	0.481	0.408	0.582	–	–	–	–	–
NCI-H2009	0.264	0.273	0.252	0.204	0.185	0.43	0.231	0.116	0.193	0.275	–	–	–	–	–	0.934	0.246	1.04	0.943	1.12
NCI-H2023	0.41	0.4	0.284	0.173	0.141	0.329	0.36	0.287	0.23	0.157	–	–	–	–	–	1.04	0.447	0.897	0.849	1.02
NCI-H2170	0.528	0.502	0.461	0.269	0.228	0.314	0.341	0.334	0.256	0.227	0.871	–	0.743	0.611	1.1	–	–	–	–	–
NCI-H2228	0.324	0.354	0.135	0.161	0.155	0.385	0.463	0.215	0.204	0.169	–	–	–	–	–	1.16	1.09	0.991	1.35	1.14
NCI-H2342	0.329	0.365	0.308	0.295	0.303	0.641	0.54	0.548	0.463	0.508	0.502	0.635	0.421	0.402	0.464	–	–	–	–	–
SK-LU-1	0.188	0.166	0.173	0.154	0.185	0.39	0.342	0.325	0.345	0.303	–	–	–	–	–	1.22	1.24	1.13	0.956	1.17
SK-MES-1	0.333	0.234	0.161	0.135	0.158	0.315	0.304	0.303	0.277	0.319	–	–	–	–	–	–	–	–	–	–
SW 900	0.35	0.405	0.387	0.292	0.163	0.457	0.506	0.314	0.305	0.348	0.839	0.536	0.594	0.621	0.835	–	–	–	–	–
SW 1573	0.458	0.433	0.416	0.153	0.163	0.429	0.407	0.367	0.228	0.251	–	–	–	–	–	1.1	1.04	0.899	1.05	1.09
